These results are taken from article PMC4474874, “Effect of JAK Inhibitors on Release of CXCL9, CXCL10 and CXCL11 from Human Airway Epithelial Cells” (PLoS ONE, 2015).

Structures are written as SMILES. Like-named read-outs stand apart in the source and are kept apart here.

Data set [1] concerns BEAS-2B cells. The data set is described as follows: Release of CXCL9, CXCL10 and CXCL11 from BEAS-2B cells (ELISA), inhibitors added 1h before stimulus. The settings on record: for IC50: BEAS-2B, pre-treated 1h. The format is cell-based, human. The method, then: BEAS-2B cells (catalogue number CRL-9609) were purchased directly from American Type Culture Collection (Rockville, MD). Keratinocyte serum-free medium (K-SFM), bovine pituitary extract (BPE), and recombinant human epidermal growth factor (EGF) were purchased from Invitrogen (Paisley, UK). BEAS-2B cells were cultured in K-SFM containing 50 μg/ml BPE and 5 ng/ml EGF at 37°C in a humidified atmosphere comprising 5% (v/v) CO2 in air. Cells were cultured as monolayers in growth factor-free media for 24 h prior to stimulation. Human primary airway epithelial cells were cultured as monolayers from bronchial brushings from both male and female subjects (Table 1) and cultured in LHC-9 media (Invitrogen, Paisley, UK) in collagen (1% w/v) coated flasks. Samples were obtained from non-smokers, smokers and patients with COPD. […] The subjects were matched for age and smokers and COPD patients for smoking history (Table 1). All subjects gave informed written consent and the study was approved by the NRES London-Chelsea Research Ethics committee, study number 09/H0801/85.
Cell-free supernatants were removed 20h post-stimulation and assayed for CXCL9, CXCL10 and CXCL11 using Duoset ELISA kits (R & D Systems Europe, Abingdon, UK) according to the manufacturer’s instructions. The detection limits of these assays are 62pg/ml, 31pg/ml, and 7.8 pg/ml respectively.
Data are presented as mean ± SEM of ‘n’ independent determinations. Concentration-response curves were analysed by least-squares, non-linear iterative regression with the ‘Graphpad Prism’ curve fitting program (GraphPad software, San Diego, USA) and IC50 values were subsequently interpolated from curves of best-fit. Statistical differences were determined using the Kruskal–Wallis test followed by Dunn's multiple comparison test or a Wilcoxon signed rank test as appropriate. Values of P<0.05 were considered significant.
Media was harvested and the concentrations of CXCL9 (panels a and d), CXCL10 (panels b and e) and CXCL11 (panels c and f) were measured by ELISA. Data are presented as mean±SEM, n = 7–8.

Data set [2] deals with STAT-1. In words: STAT-1 phosphorylation in human primary airway epithelial cells (western blot). It counts as cell-based. The settings on record: 1μM inhibitor 1h, IFNγ and IFNγ + TNFα 10 min. The procedure:
(§1) Enhanced chemiluminescence (ECL) reagent and Hybond-ECL nitrocellulose were obtained from GE Healthcare (Little Chalfont, UK). Bis-Tris SDS-PAGE (4–12%) gels and buffers were purchased from Invitrogen Ltd (Paisley, Scotland, UK). Antibodies against phosphorylated and total STAT-1 were purchased from New England Biolabs (Hitchin, UK). Epithelial cells were treated as indicated in six-well plates and lysed in 10 mM Tris-HCl buffer (pH 7.5) containing 150 mM NaCl, 2 mM EDTA, 1 mM sodium orthovanadate, 1% (v/v) Triton X-100, 1 mM phenylmethylsulfonyl fluoride, 10 μg/ml leupeptin, and 10 μg/ml aprotinin) for 30 min on ice. The lysates were then centrifuged at 12,000g for 15 min and protein concentration determined using the BCA protein assay (BioRad, Hemel Hempstead, UK). The proteins within the lysates (20 μg) were resolved with 4–12% Bis-Tris gels and transferred onto nitrocellulose membranes. The membranes were then blocked with 5% (w/v) non-fat milk in TBS containing 0.1% (v/v) Tween 20 for 1 h at room temperature and then incubated with antibodies specific for pSTAT-1 overnight at 4°C. The primary antibody was detected with peroxidase-conjugated secondary antibodies and labelled proteins were detected by ECL.
Cells were harvested and western blots performed for phosphorylated STAT-1 and total STAT-1 and quantified by densitometry. […]

The subject of data set [3] is STAT-1. In words: STAT-1 phosphorylation in BEAS-2B cells (western blot). The format is cell-based, human. The settings on record: for IC50: n = 4. The procedure:
as §1
Having ascertained that JAK inhibitors could suppress the glucocorticosteroid-insensitive release of CXCL9, CXCL10 and CXCL11 from airway epithelial cells, it was important to confirm that this was via inhibition of the JAK-STAT pathway and not an off-target effect of these agents. […] BEAS-2B cells were stimulated with either IFNγ or IFNγ in combination with TNFα and the phosphorylation of STAT-1 was measured by western blotting as reported previously (Fig 4). […] There was no activation of STAT-5A or STAT-5B in this system (data not shown).
Cells were harvested and western blots performed for phosphorylated STAT-1 and total STAT-1 and quantified by densitometry. Data are representative of n = 4 independent experiments (panels a and c) and presented as mean±SEM, n = 4 (panels b and d).
(In general: Immunoblotting shows a protein as a band on a membrane.)

Data set [4] deals with BEAS-2B and human primary airway epithelial cells. In words: Cell viability, MTT assay. It counts as cell-based. The settings on record: for cell viability compared to untreated cells (MTT): at 10^-6M and at all concentrations below this. The method, then: Cell viability was determined colorimetrically by measuring the reduction of 3-[4,5-dimethylthiazol-2-yl]-2,5-diphenyltetrazolium bromide, MTT, to formazan by mitochondrial dehydrogenases, as described previously.
In order to determine whether any of the inhibitory effects of the JAK inhibitors could be attributed to cell death, MTT assays were performed at the end of every experiment. […] In order to address this issue, the levels of IL-6 released from cells stimulated with IFNγ + TNFα were measured.
For orientation: Tetrazolium assays rely on reduction of a dye to a coloured formazan, in cell work by metabolically active cells.

Data set [5] concerns BEAS-2B cells. The data set is described as follows: mRNA expression of CXCL9, CXCL10 and CXCL11 in BEAS-2B cells (Taqman RT-PCR). It counts as cell-based, human. The settings on record: BEAS-2b, pretreated 1h, IFNγ or IFNγ with TNFα for 4h. The procedure: Total RNA was extracted from cells and reverse transcribed, as described previously. Gene expression was determined by Taqman real-time PCR on a 7500 Real Time PCR system (Applied Biosystems, Life Technologies Ltd, Paisley, UK) using PCR Master Mix Reagent and ‘assays on demand’ (Applied Biosystems). HPRT1 gene expression was used as the housekeeping gene and data presented as δδCT relative to baseline.
Gene expression of CXCL9 (panels a and b), CXCL10 (panels c and d) and CXCL11 (panels e and f) were quantified by Taqman RT-PCR. Data are presented as fold change form stimulus ± SEM; n = 3 where 1 indicates the level of mRNA induced by IFNγ or IFNγ + TNFα in the absence of inhibitors.

For the compound `CCc1cc(O)ccc1-c1ccc2c(-c3nc4ccccc4[nH]3)n[nH]c2c1` [PF1367550, 4-(3-(1H-benzo[d]imidazol-2-yl)-1H-indazol-6-yl)-3-ethylphenol], the “fold more potent than PF956980, CXCR3 chemokine release” value with BEAS-2B cells [1] (BEAS-2B cells, IFNγ and IFNγ+TNFα) is on record as ~ 50 fold. Further, the IC50 in the data set with BEAS-2B cells [1] (Homo sapiens, IFNγ (10ng/ml) 20h, read-out: IC50, release of CXCL9) was found to be 3.6 ± 1.4 nM; in the data set with BEAS-2B cells [1] (Homo sapiens, IFNγ (10ng/ml) 20h, read-out: IC50, release of CXCL10), 6.1 ± 2 nM; in the data set on BEAS-2B cells [1] (Homo sapiens, IFNγ (10ng/ml) 20h, read-out: IC50, release of CXCL11), 11.5 ± 2 nM; with BEAS-2B cells [1] (Homo sapiens, IFNγ+TNFα (10ng/ml) 20h, read-out: IC50, release of CXCL9) it was 13.3 ± 2 nM; in the data set with BEAS-2B cells [1] (Homo sapiens, IFNγ+TNFα (10ng/ml) 20h, read-out: IC50, release of CXCL10), 50.3 ± 8.5 nM; with BEAS-2B cells [1] (Homo sapiens, IFNγ+TNFα (10ng/ml) 20h, read-out: IC50, release of CXCL11), 13.9 ± 2.6 nM. Further, the IC50 in the data set with STAT-1 [3] (Homo sapiens, IFNγ + TNFα stimulation) was determined as 32 ± 13 nM; with STAT-1 [3] (Homo sapiens, IFNγ stimulation), 24 ± 6 nM. Besides, in the data set with STAT-1 [2], the “effect on phosphorylation of STAT-1” value is given as “suppressed”. Besides, the “fold more potent at suppressing STAT-1 phosphorylation compared with PF956980” value with STAT-1 [3] is listed as ~ 40 fold. Moreover, the “cell viability compared to untreated cells (MTT)” value in data set [4] is given as “no alterations in cell viability”. The “effect on cell viability (MTT)” value in data set [4] (within 10^3 of the IC50 for this compound) is “no effect on cell viability”. Moreover, the “effect on expression of CXCL9, CXCL10 and CXCL11 (mRNA)” value with BEAS-2B cells [5] was “completely inhibited”.

On to `C[C@@H]1CCN(C(=O)N2CCCC2)C[C@@H]1N(C)c1ncnc2[nH]ccc12` [PF956980], for which the IC50 in the data set with BEAS-2B cells [1] (IFNγ (10ng/ml) 20h, read-out: IC50, release of CXCL9) is 400 ± 100 nM; in the data set on BEAS-2B cells [1] (IFNγ (10ng/ml) 20h, read-out: IC50, release of CXCL10), 600 ± 300 nM; with BEAS-2B cells [1] (IFNγ (10ng/ml) 20h, read-out: IC50, release of CXCL11), 500 ± 100 nM; in the data set on BEAS-2B cells [1] (IFNγ+TNFα (10ng/ml) 20h, read-out: IC50, release of CXCL9), 600 ± 100 nM; in the data set with BEAS-2B cells [1] (IFNγ+TNFα (10ng/ml) 20h, read-out: IC50, release of CXCL10) it was 2200 ± 300 nM; with STAT-1 [3] (IFNγ + TNFα stimulation), 840 ± 210 nM. Further, the IC50 in the data set with STAT-1 [3] (IFNγ stimulation) came out at 940 ± 160 nM. For the same compound, in the data set on BEAS-2B cells [1] (present study, IFNγ-stimulated), the “effect on IFNγ-stimulated release of CXCL9, CXCL10 and CXCL11” value is on record as “completely attenuated”. Also, the “effect on phosphorylation of STAT-1” value in the data set on STAT-1 [2] is listed as “suppressed”. Further, the “effect on cell viability (MTT)” value in data set [4] (any of the concentrations used in this study) was “no effect on cell viability”. Further, the “cell viability compared to untreated cells (MTT)” value in data set [4] is reported as “no alterations in cell viability”. In the data set on BEAS-2B cells [5], the “effect on expression of CXCL9, CXCL10 and CXCL11 (mRNA)” value is “suppressed expression of CXCL9, CXCL10 and CXCL11 in a concentration dependent manner”.

Usually IC50 stands for the midpoint of a concentration-inhibition curve.
